According to PMC9481151, “Discovery of new symmetrical and asymmetrical nitrile-containing 1,4-dihydropyridine derivatives as dual kinases and P-glycoprotein inhibitors: synthesis, in vitro assays, and in silico studies” (Journal of Enzyme Inhibition and Medicinal Chemistry, 2022):

Columns and labels:
SK-MEL-5 = experiment: NCI single dose (10 µM) SRB screen; assay type: cell-based, human; conditions: melanoma, 48 h
UACC-257 = experiment: NCI single dose (10 µM) SRB screen; assay type: cell-based, human; conditions: melanoma, 48 h
UACC-62 = experiment: NCI single dose (10 µM) SRB screen; assay type: cell-based, human; conditions: melanoma, 48 h
IGROV1 = experiment: NCI single dose (10 µM) SRB screen; assay type: cell-based, human; conditions: ovarian cancer, 48 h
OVCAR-3 = experiment: NCI single dose (10 µM) SRB screen; assay type: cell-based, human; conditions: ovarian cancer, 48 h
OVCAR-4 = experiment: NCI single dose (10 µM) SRB screen; assay type: cell-based, human; conditions: ovarian cancer, 48 h
OVCAR-5 = experiment: NCI single dose (10 µM) SRB screen; assay type: cell-based, human; conditions: ovarian cancer, 48 h
OVCAR-8 = experiment: NCI single dose (10 µM) SRB screen; assay type: cell-based, human; conditions: ovarian cancer, 48 h
NCI/ADR-RES = experiment: NCI single dose (10 µM) SRB screen; assay type: cell-based, human; conditions: ovarian cancer, 48 h
SK-OV-3 = experiment: NCI single dose (10 µM) SRB screen; assay type: cell-based, human; conditions: ovarian cancer, 48 h
786-0 = experiment: NCI single dose (10 µM) SRB screen; assay type: cell-based, human; conditions: renal cancer, 48 h
A498 = experiment: NCI single dose (10 µM) SRB screen; assay type: cell-based, human; conditions: renal cancer, 48 h
ACHN = experiment: NCI single dose (10 µM) SRB screen; assay type: cell-based, human; conditions: renal cancer, 48 h
CAKI-1 = experiment: NCI single dose (10 µM) SRB screen; assay type: cell-based, human; conditions: renal cancer, 48 h
RXF 393 = experiment: NCI single dose (10 µM) SRB screen; assay type: cell-based, human; conditions: renal cancer, 48 h
SN12C = experiment: NCI single dose (10 µM) SRB screen; assay type: cell-based, human; conditions: renal cancer, 48 h
TK-10 = experiment: NCI single dose (10 µM) SRB screen; assay type: cell-based, human; conditions: renal cancer, 48 h
UO-31 = experiment: NCI single dose (10 µM) SRB screen; assay type: cell-based, human; conditions: renal cancer, 48 h
PC-3 = experiment: NCI single dose (10 µM) SRB screen; assay type: cell-based, human; conditions: prostate cancer, 48 h
DU-145 = experiment: NCI single dose (10 µM) SRB screen; assay type: cell-based, human; conditions: prostate cancer, 48 h
MCF7 = experiment: NCI single dose (10 µM) SRB screen; assay type: cell-based, human; conditions: breast cancer, 48 h
MDA-MB-231 = experiment: NCI single dose (10 µM) SRB screen; assay type: cell-based, human; conditions: breast cancer, 48 h
HS578T = experiment: NCI single dose (10 µM) SRB screen; assay type: cell-based, human; conditions: breast cancer, 48 h
BT-549 = experiment: NCI single dose (10 µM) SRB screen; assay type: cell-based, human; conditions: breast cancer, 48 h
T-47D = experiment: NCI single dose (10 µM) SRB screen; assay type: cell-based, human; conditions: breast cancer, 48 h
MDA-MB-468 = experiment: NCI single dose (10 µM) SRB screen; assay type: cell-based, human; conditions: breast cancer, 48 h
NCI 60 cancer cell lines = experiment: NCI single dose (10 µM) SRB screen, mean over panel; assay type: cell-based, human; conditions: mean over 60 cell lines, 48 h
Staphylococcus aureus = experiment: Agar well diffusion method; conditions: relative to ciprofloxacin
Bacillus subtilis = experiment: Agar well diffusion method; conditions: relative to ciprofloxacin
Escherichia coli = experiment: Agar well diffusion method; conditions: relative to ciprofloxacin
Pseudomonas aeruginosa = experiment: Agar well diffusion method; conditions: relative to ciprofloxacin
Candida albicans = experiment: Agar well diffusion method; conditions: relative to clotrimazole
Aspergillus flavus = experiment: Agar well diffusion method; conditions: relative to clotrimazole

CCOC(=O)C1=C(C)NC(C)=C(C(=O)OCC(C)C)C1c1cccc(C#N)c1 (racemic) [Compound 2i, (±)-3-Ethyl 5-isobutyl 4-(3-cyanophenyl)-2,6-dimethyl-1,4-dihydropyridine-3,5-dicarboxylate]
GI% SK-MEL-5 (SK-MEL-5): 12%
GI% UACC-257 (UACC-257): – (Only GI% ≥ 10 are shown)
GI% UACC-62 (UACC-62): 27%
GI% IGROV1 (IGROV1): – (Only GI% ≥ 10 are shown)
GI% OVCAR-3 (OVCAR-3): – (Only GI% ≥ 10 are shown)
GI% OVCAR-4 (OVCAR-4): 12%
GI% OVCAR-5 (OVCAR-5): – (Only GI% ≥ 10 are shown)
GI% OVCAR-8 (OVCAR-8): – (Only GI% ≥ 10 are shown)
GI% NCI/ADR-RES (NCI/ADR-RES): 22%
GI% SK-OV-3 (SK-OV-3): – (Only GI% ≥ 10 are shown)
GI% 786-0 (786-0): 11%
GI% A498 (A498): – (Only GI% ≥ 10 are shown)
GI% ACHN (ACHN): – (Only GI% ≥ 10 are shown)
GI% CAKI-1 (CAKI-1): 35%
GI% RXF 393 (RXF 393): 30%
GI% SN12C (SN12C): – (Only GI% ≥ 10 are shown)
GI% TK-10 (TK-10): – (Only GI% ≥ 10 are shown)
GI% UO-31 (UO-31): – (Only GI% ≥ 10 are shown)
GI% PC-3 (PC-3): 29%
GI% DU-145 (DU-145): – (Only GI% ≥ 10 are shown)
GI% MCF7 (MCF7): 34%
GI% MDA-MB-231 (MDA-MB-231): – (Only GI% ≥ 10 are shown)
GI% HS578T (HS578T): 13%
GI% BT-549 (BT-549): – (Only GI% ≥ 10 are shown)
GI% T-47D (T-47D): 32%
GI% MDA-MB-468 (MDA-MB-468): 24%
Mean GI% (NCI 60 cancer cell lines): 9%
melting point: 120 to 121 °C
% activity index, S. aureus (Staphylococcus aureus): – (Values below 25 are of limited value and not shown as they refer either to inactive or non-diffusing compounds)
% activity index, B. subtilis (Bacillus subtilis): – (Values below 25 are of limited value and not shown as they refer either to inactive or non-diffusing compounds)
% activity index, E. coli (Escherichia coli): – (Values below 25 are of limited value and not shown as they refer either to inactive or non-diffusing compounds)
% activity index, P. aeruginosa (Pseudomonas aeruginosa): – (Values below 25 are of limited value and not shown as they refer either to inactive or non-diffusing compounds)
% activity index, C. albicans (Candida albicans): – (Values below 25 are of limited value and not shown as they refer either to inactive or non-diffusing compounds)
% activity index, A. flavus (Aspergillus flavus): – (Values below 25 are of limited value and not shown as they refer either to inactive or non-diffusing compounds)
